Assay results published in patent US9340577B2, “HLA binding motifs and peptides and their uses” (priority 1992, dated 2016).
pIC50: −log10 of the molar value. No end group written: not given here.

Columns and labels:
Experiment in all cases: biochemical
Assay type in all cases: binding
[1] = biological target: A*6801 (Homo sapiens, UniProt P04439, A269V/D185E/E176V/E277Q/E87N/F33Y/G231S/I121M/I166T/I218V/L180W/L300P/L318F/N151K/P208A/P217A/Q86R/R169H/T345S)
[2] = biological target: HLA-A3.2 (A*0301) (Homo sapiens, UniProt P04439)
[3] = biological target: A*3301 (Homo sapiens, UniProt P04439, A270S/D185E/E176V/E277Q/E87N/F33T/G231S/H175R/I121M/I218V/I322F/K168Q/K210R/L300P/L318F/M331R/P217A/Q86R/Q94H/R138Q/T323A/T345S/T97I/V358M/Y195H)
[4] = biological target: HLA-A11 (A*1101) (Homo sapiens, UniProt P04439, A114D/D185E/E176A/F33Y/L180Q/S129P/T187R)
[5] = biological target: A31 (A*3101) (Homo sapiens, UniProt P04439, A270S/D185E/E176V/E277Q/F33T/G231S/G80R/H175R/I121M/I218V/I322F/K168Q/L300P/L318F/M331R/P217A/Q94H/R138Q/T323A/T345S/T97I/V358M)

| Sequence | pIC50 [1] | pIC50 [2] | pIC50 [3] | pIC50 [4] | pIC50 [5] |
| --- | --- | --- | --- | --- | --- |
| KTTVLFKFK [Peptide 88.0369] | 6.06 | 7.51 | 5.86 | 7.70 | 7.44 |
| TVSAELPR [Peptide 1556.22] | 6.67 | < 4.70 | 5.00 | 5.73 | 4.94 |
| VTVQYDNDKK [Peptide 88.0216] | 5.94 | 4.74 | < 4.70 | 7.00 | < 4.70 |
| LTSQIEHWK [Peptide 88.0439] | 7.62 | 5.31 | < 4.70 | 7.85 | 5.05 |
| VVYRDSIPH [Peptide 78.0275] | < 4.70 | 6.40 | < 4.70 | 6.75 | < 4.70 |
| AQIEHWKLTR [Peptide 88.0226] | 5.54 | 5.68 | < 4.70 | 7.20 | 6.53 |
| FTDLRIVYR [Peptide 1550.08] | 6.80 | 5.53 | 8.01 | 4.98 | 7.19 |
| LLLIRFKCSK [Peptide 88.0191] | 6.06 | 6.55 | 4.76 | 5.45 | 6.13 |
| RLECVLMYK [Peptide 1589.12] | 5.44 | 8.06 | 6.08 | 7.68 | 7.36 |
| RQMNMSQWIK [Peptide 1587.54] | 5.51 | 7.74 | < 4.70 | 8.12 | 7.39 |
| GLGISYGRK [Peptide 1577.25] | < 4.70 | 7.19 | < 4.70 | 5.67 | < 4.70 |
| KISEYRHYCY [Peptide 78.0082] | 5.70 | 6.82 | 5.63 | 6.79 | 5.31 |
| SIVGWPAVR [Peptide 9017.0058] | 7.68 | 5.96 | 6.33 | 6.20 | 7.10 |
| SFFSRTWCR [Peptide 1587.42] | 7.55 | 5.62 | 8.46 | 6.81 | 8.66 |
| RLKAICIEK [Peptide 1587.01] | < 4.70 | 7.37 | < 4.70 | 6.28 | 7.70 |
| LLRAVRIIK [Peptide 9017.0069] | < 4.70 | 7.16 | < 4.70 | 5.69 | 5.58 |
| ATTPIIHLK [Peptide 1589.18] | 8.17 | 8.01 | 4.95 | 8.12 | 7.31 |
| VTVYYGIPVWR [Peptide 1525.05] | 8.44 | 6.91 | 8.35 | 7.77 | 8.42 |
| CFFTRTWSR [Peptide 88.0382] | 7.28 | 4.87 | 8.52 | 5.83 | 8.37 |
| SFFSRTWSR [Peptide 1587.16] | 8.44 | 5.94 | 9.23 | 7.59 | 9.54 |

| Sequence | pIC50 [1] | pIC50 [2] | pIC50 [3] | pIC50 [4] | pIC50 [5] |
| --- | --- | --- | --- | --- | --- |
| MLVRFKCAK [Peptide 1587.30] | 6.06 | 6.82 | 6.01 | 6.73 | 7.07 |
| NSNASAFLK [Peptide 1587.07] | 7.57 | 6.37 | 6.57 | 7.89 | 5.47 |
| KFYSKISEYR [Peptide 78.0081] | 6.58 | 5.77 | 7.10 | 4.74 | 7.32 |
| KTLLQPYCLY [Peptide 88.0153] | < 4.70 | 6.74 | 4.71 | 6.39 | 5.37 |
| VVQQLLMGA [Peptide 78.0338] | 5.84 | < 4.70 | 6.36 | < 4.70 | 5.55 |
| QVVPAYNISK [Peptide 1589.06] | 8.12 | 6.49 | < 4.70 | 7.82 | 5.18 |
| LLFYSKVRK [Peptide 78.0298] | 7.64 | 8.41 | 6.10 | 7.89 | 6.40 |
| GVSIEWRKRR [Peptide 9017.0221] | 5.06 | < 4.70 | 5.77 | 5.20 | 6.65 |
| TILWKDIFHR [Peptide 9012.0223] | 7.59 | 5.71 | 7.96 | 8.00 | 7.48 |
| HSRIGILRQR [Peptide 9017.0242] | 6.60 | 6.20 | 6.38 | 5.16 | 8.01 |
| VFADLRIVYR [Peptide 78.0073] | 6.71 | < 4.70 | 7.28 | 5.68 | 7.51 |
| RLECAIYYK [Peptide 1589.01] | 5.15 | 7.26 | 5.18 | 7.52 | 6.82 |
| VVLLLVRYK [Peptide 1587.05] | 6.27 | 7.89 | 7.68 | 7.68 | 8.92 |
| NVAPIVHLK [Peptide 1589.21] | 8.62 | 5.20 | < 4.70 | 6.40 | < 4.70 |
| TVHVYFDGNK [Peptide 1589.24] | 7.01 | 6.15 | < 4.70 | 7.21 | < 4.70 |
| KLFLQGTPK [Peptide 88.0381] | 6.15 | 7.82 | < 4.70 | 7.92 | 7.29 |
| AILGHIVIPR [Peptide 9017.0224] | 7.38 | 7.51 | 6.99 | 7.32 | 8.70 |
| RVLQGLPREK [Peptide 9012.0238] | 4.84 | 7.42 | < 4.70 | 7.46 | 7.06 |
| SVYGTTLEK [Peptide 78.0282] | 7.82 | 7.72 | < 4.70 | 8.42 | 5.05 |
| KTDEGGDWK [Peptide 88.0380] | 5.00 | 5.44 | 4.88 | 6.39 | < 4.70 |
